For one compound, IC50 results are on record in PMC8132113 (Cancer letters, 2019).

In the experiment the target is ABCB1 (Homo sapiens, UniProt P08183). In words: vanadate-sensitive ATPase assay. Type of experiment: biochemical.

Molecules are shown by their SMILES. pIC50: −log10 of the molar value.

Sequence of ABCB1 (P08183 whole entry): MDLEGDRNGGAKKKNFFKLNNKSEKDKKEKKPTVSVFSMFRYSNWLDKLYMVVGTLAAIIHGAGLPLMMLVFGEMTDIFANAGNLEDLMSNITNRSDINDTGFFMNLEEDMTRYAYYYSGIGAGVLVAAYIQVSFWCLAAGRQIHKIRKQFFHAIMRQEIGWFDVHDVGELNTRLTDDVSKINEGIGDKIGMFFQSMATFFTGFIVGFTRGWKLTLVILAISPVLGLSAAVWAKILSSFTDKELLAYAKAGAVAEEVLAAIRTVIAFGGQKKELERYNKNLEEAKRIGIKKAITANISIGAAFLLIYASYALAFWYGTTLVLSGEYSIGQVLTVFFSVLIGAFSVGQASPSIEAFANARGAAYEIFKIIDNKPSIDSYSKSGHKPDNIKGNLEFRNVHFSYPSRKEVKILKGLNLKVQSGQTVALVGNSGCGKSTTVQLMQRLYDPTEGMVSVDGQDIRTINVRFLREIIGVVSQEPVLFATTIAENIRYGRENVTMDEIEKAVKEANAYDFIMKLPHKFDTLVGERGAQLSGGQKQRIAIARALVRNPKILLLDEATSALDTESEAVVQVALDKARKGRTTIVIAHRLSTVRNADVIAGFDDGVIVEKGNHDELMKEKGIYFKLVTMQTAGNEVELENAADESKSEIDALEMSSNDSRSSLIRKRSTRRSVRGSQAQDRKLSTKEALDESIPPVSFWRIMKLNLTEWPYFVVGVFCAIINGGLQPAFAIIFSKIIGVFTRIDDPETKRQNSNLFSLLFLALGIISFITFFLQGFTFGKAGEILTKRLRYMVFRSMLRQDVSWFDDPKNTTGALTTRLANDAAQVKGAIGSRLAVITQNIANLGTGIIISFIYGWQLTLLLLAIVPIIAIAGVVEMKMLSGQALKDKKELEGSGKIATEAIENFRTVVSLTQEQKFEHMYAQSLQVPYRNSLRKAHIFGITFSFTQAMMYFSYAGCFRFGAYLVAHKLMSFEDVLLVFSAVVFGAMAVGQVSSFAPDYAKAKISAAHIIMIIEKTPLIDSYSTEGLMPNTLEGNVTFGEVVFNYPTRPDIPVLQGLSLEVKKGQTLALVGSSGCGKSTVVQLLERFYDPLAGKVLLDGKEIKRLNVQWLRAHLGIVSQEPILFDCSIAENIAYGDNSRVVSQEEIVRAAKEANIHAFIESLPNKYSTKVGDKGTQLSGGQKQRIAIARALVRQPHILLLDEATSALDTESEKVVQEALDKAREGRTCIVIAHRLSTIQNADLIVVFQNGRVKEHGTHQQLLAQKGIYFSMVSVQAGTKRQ

For the compound `CO[C@@H]1[C@H](N(C)C(=O)c2ccccc2)C[C@H]2O[C@]1(C)n1c3ccccc3c3c4c(c5c6ccccc6n2c5c31)C(=O)NC4` [midostaurin], the pIC50 is ~5.00.
